Assay [1] deals with T1, wild-type human H1 receptors (WT) (Homo sapiens, UniProt P35367).
T1 construct: 3xHA (three copies of hemagglutinin YPYDVPDYA) (N); membrane preparations
The assay is described as follows: biochemical. It is filed as binding.

The test system of assay [2] is wild-type human H1 receptors (WT). Description: biochemical. It is filed as binding. Conditions: mutants K179A, K191A, K179A + K191A versus WT, 25 °C; significant.
For assay [3], the target named is T2, K179A + K191A (both Lys179 and Lys191 mutant of H1 receptor to alanine) (Homo sapiens, UniProt P35367, K179A/K191A).
T2 construct: 3xHA (three copies of hemagglutinin YPYDVPDYA) (N); expressed in transfected cells; membrane preparations
Description: [3H]mepyramine displacement binding, membranes of CHO cells expressing K179A + K191A mutant. The procedure:
(§1) To evaluate changes in the binding affinity of bilastine for H1 receptors by mutations of Lys179^ECL2 and/or Lys191^5.39, the IC50 for bilastine was first obtained from the displacement curves for the binding of 3 nM [^3H] mepyramine to membrane preparations of CHO cells expressing wild-type human H1 receptors (WT), Lys179^ECL2 or Lys191^5.39 mutants of WT to alanine (K179A and K191A), and both Lys179^ECL2 and Lys191^5.39 mutants of WT to alanine (K179A + K191A) at 4 °C–37 °C (Figure 3). The Ki values for bilastine were then calculated from the IC50, as described in the materials and methods section.
(§2) CHO cells stably expressing WT, K179A, K191A, and K179A + K191A were cultured, and membrane preparations were obtained as described previously. […] The reaction mixture was filtered through glass fiber filters, and the radioactivity trapped on the filters was determined by scintillation counting. […] The protein content in the membrane preparations was determined using a BCA protein assay kit (Pierce, Rockford, IL, USA).
(§3) The IC50 for bilastine was determined by fitting the displacement curves to the one-site model (KaleidaGraph; Synergy Software, Reading, PA, USA):B = 100 − P × C/(C + IC50) where B is the amount of [^3H] mepyramine bound, C is the free concentration of bilastine, and P is the percentage of the binding sites of bilastine. […]

Assay [4] has as its target T3, K179A (Lys179 mutant of H1 receptor to alanine) (Homo sapiens, UniProt P35367, K179A).
T3 construct: 3xHA (three copies of hemagglutinin YPYDVPDYA) (N); expressed in transfected cells; membrane preparations
Description: [3H]mepyramine displacement binding, membranes of CHO cells expressing K179A mutant. Here is the method:
as §1, §2, §3

The target in assay [5] is T4, K191A (Lys191 mutant of H1 receptor to alanine) (Homo sapiens, UniProt P35367, K191A).
T4 construct: 3xHA (three copies of hemagglutinin YPYDVPDYA) (N); expressed in transfected cells; membrane preparations
Description: [3H]mepyramine displacement binding, membranes of CHO cells expressing K191A mutant. The procedure: as §1
CHO cells stably expressing WT, K179A, K191A, and K179A + K191A were cultured, and membrane preparations were obtained as described previously. The receptor binding assay with [^3H] mepyramine, a radioligand for H1 receptors, was performed in accordance with the methods described previously. Briefly, aliquots (0.1 mL) of membrane preparations (approximately 50 µg of membrane proteins) were incubated with 3 nM [^3H] mepyramine in the presence or absence of various concentrations of bilastine for 3 h at 37 °C, 24 h at 25 °C and 14 °C, and 7 days at 4 °C in normal HEPES buffer (NaCl, 120 mM; KCl, 5.4 mM; MgCl2, 1.6 mM; CaCl2, 1.8 mM, D-glucose, 11 mM; and HEPES, 25 mM; pH 7.4 at 37 °C; final volume 1 mL). The reaction mixture was filtered through glass fiber filters, and the radioactivity trapped on the filters was determined by scintillation counting. All determinations were made in quadruplicate. The protein content in the membrane preparations was determined using a BCA protein assay kit (Pierce, Rockford, IL, USA).
as §3

The mark [6] stands for this setting: K191A versus WT, van 't Hoff analysis 4-37 °C, significant.

Consider one compound from paper PMC7915449, “Differential Regulation of Bilastine Affinity for Human Histamine H1 Receptors by Lys 179 and Lys 191 via Its Binding Enthalpy and Entropy” (International Journal of Molecular Sciences, 2021).

As a reminder, the Ki is a dissociation constant, usually derived from enzyme kinetics or from competition with a known ligand.

T4 sequence (P35367 whole entry K191A): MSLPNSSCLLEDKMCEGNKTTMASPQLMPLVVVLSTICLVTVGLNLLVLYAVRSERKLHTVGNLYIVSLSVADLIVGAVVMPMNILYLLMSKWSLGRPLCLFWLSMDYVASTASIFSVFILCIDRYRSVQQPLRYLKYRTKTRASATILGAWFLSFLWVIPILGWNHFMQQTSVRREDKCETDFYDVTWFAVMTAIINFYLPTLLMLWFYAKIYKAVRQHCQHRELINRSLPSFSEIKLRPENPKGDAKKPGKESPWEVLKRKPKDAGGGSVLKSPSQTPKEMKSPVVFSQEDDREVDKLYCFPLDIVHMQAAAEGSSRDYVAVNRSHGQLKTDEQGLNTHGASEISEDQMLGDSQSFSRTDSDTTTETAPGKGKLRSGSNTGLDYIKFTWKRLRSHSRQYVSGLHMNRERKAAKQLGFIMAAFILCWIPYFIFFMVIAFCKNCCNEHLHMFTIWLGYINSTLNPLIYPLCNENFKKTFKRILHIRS
T2 sequence (P35367 whole entry K179A/K191A): as the sequence (P35367 whole entry K191A) above, with K179A counted along it
T3 sequence (P35367 whole entry K179A): as the sequence (P35367 whole entry K191A) above, with K179A, A191K counted along it
T1 sequence (P35367 whole entry): as the sequence (P35367 whole entry K191A) above, with A191K counted along it

Take `CCOCCn1c(C2CCN(CCc3ccc(C(C)(C)C(=O)O)cc3)CC2)nc2ccccc21` [bilastine, Bilastine]: the Ki worked out at 1.92 ± 0.08 nM in assay [1], 7.96 ± 0.76 nM in assay [3], 5.2 ± 1.18 nM in assay [4] and 2.57 ± 0.16 nM in assay [5]. Besides, the “reduction of affinity for H1 receptors following mutation of Lys179 and/or Lys191” value in assay [2] was 1.3 to 4.1 times. Also, the “reduction in the entropy-dependent binding forces (∆T∆S°) by mutation” value came to 0.526 kcal/mol in assay [3] (K179A + K191A versus WT, van 't Hoff analysis 4-37 °C, not significant) and 1.96 kcal/mol in assay [5] (setting [6]). In assay [4] (K179A versus WT, van 't Hoff analysis 4-37 °C, not significant), the “reduction in the enthalpy-dependent binding forces (∆H°) by mutation” value amounted to 0.454 kcal/mol. Moreover, the “increase in enthalpy-dependent binding forces (∆H°) by mutation” value in assay [5] (setting [6]) turned out to be 1.94 kcal/mol.
